This is an account of results in ChEMBL document CHEMBL5380860, “Design, Synthesis, and Antitumor Activity of Potent and Selective EGFR L858R/T790M Inhibitors and Identification of a Combination Therapy to Overcome Acquired Resistance in Models of Non-small-cell Lung Cancer” (J Med Chem, 2023).

Series [1] relates to NCI-H1975. The experiment in a line: Antitumor activity against human NCI-H1975 cells xenografted in BALB/c mouse assessed as tumor regression at 10 mg/kg/day, po. The series is classed as functional, organism-based.
The subject of series [2] is HCC827. Put plainly: Inhibition of clonogenicity in human HCC827 cells assessed as inhibition of colony formation incubated for 14 days by crystal violet staining based analysis. The series is classed as functional, cell-based. Particulars: dose 0.1-10 µM, time 14.0 day.
Series [3] has as its system Epidermal growth factor receptor (Homo sapiens), P00533 [T790M]. The experiment in a line: Inhibition of human partial length EGFR (R669 to G1022 residues) T790M mutant expressed in mammalian expression system assessed as residual activity at 1 uM by KINOMEscan analysis.
The target in series [4] is T1, STE20-like serine/threonine-protein kinase (Homo sapiens, UniProt Q9H2G2). The experiment in a line: Inhibition of human wild type partial length SLK (S14 to A307 residues) expressed in bacterial expression system assessed as residual activity at 1 uM by KINOMEscan analysis.
Target sequence in this assay (Q9H2G2 whole entry, looked up, the tested form may be a part): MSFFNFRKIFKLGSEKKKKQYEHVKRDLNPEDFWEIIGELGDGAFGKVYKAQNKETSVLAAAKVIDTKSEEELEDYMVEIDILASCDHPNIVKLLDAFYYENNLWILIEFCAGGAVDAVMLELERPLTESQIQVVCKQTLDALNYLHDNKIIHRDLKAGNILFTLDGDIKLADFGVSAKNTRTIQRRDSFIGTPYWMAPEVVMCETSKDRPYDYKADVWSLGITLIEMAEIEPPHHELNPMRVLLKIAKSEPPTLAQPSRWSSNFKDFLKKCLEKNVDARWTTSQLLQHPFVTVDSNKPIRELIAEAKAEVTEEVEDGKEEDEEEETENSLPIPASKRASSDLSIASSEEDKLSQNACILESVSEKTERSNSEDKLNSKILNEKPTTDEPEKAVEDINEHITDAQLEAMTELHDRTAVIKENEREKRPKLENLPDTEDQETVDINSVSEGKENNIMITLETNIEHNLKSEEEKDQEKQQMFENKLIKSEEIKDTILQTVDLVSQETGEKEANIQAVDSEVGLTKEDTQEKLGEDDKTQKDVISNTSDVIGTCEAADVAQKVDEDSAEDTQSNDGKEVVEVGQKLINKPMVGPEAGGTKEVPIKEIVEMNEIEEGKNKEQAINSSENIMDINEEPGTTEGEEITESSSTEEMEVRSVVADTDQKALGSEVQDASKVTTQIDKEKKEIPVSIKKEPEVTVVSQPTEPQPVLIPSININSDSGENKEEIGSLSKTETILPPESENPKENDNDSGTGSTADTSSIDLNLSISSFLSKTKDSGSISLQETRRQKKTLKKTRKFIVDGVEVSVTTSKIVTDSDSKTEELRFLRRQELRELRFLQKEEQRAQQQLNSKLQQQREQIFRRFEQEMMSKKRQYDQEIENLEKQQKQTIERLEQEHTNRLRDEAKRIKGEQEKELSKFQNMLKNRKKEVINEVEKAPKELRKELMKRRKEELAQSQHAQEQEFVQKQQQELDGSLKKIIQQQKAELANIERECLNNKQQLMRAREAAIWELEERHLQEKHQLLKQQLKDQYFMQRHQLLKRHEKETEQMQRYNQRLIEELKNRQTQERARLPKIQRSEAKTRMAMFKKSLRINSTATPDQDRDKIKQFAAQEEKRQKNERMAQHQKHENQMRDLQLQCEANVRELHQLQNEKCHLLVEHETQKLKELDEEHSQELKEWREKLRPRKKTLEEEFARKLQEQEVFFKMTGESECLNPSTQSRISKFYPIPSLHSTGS
In series [5] the target is T2, Epidermal growth factor receptor (Homo sapiens, UniProt P00533). Put plainly: Inhibition of human wild type partial length EGFR (R669 to V1011 residues) expressed in bacterial expression system by KINOMEscan analysis. The series is classed as toxicity.
Series [6] is described as follows: Toxicity in BALB/c mouse xenografted with N-(3-((6-Fluoro-2-((4-(4-methylpiperazin-1-yl)phenyl)amino)quinazolin-4-yl)amino)phenyl)acrylamide-resistant human NCI-H1975 cells assessed as effect on body weight at 20 mg/kg/day, ip in presence of ACK1 inhibitor, dasatinib. The format is organism-based. The note with it: in vivo.
The subject of series [7] is A549. The experiment in a line: Induction of apoptosis in human A549 cells assessed as induction of caspase-3 cleavage at 0.1 to 10 uM pretreated with compound for 4 hrs followed by incubation with EGF for 10 mins by western blot analysis. The format is toxicity, cell-based. The note with it: a549, 4.167 h, dose 0.1-10 µM, time 250 min.
Series [8] has as its system NCI-H1975. The experiment in a line: Antitumor activity against human NCI-H1975 cells xenografted in BALB/c mouse assessed as inhibition of tumor burden at 20 mg/kg/day, ip. The format is functional, organism-based.
For series [9], the system named is HCC827. Put plainly: Induction of apoptosis in human HCC827 cells assessed as induction of caspase-3 cleavage pretreated with compound for 4 hrs followed by incubation with EGF for 10 mins by western blot analysis. The series is classed as functional, cell-based. The note with it: dose 0.1-10 µM, time 250.0 min.
In series [10] the test system is NCI-H1975. Put plainly: Inhibition of cell migration in human NCI-H1975 cells at 0.1 uM incubated for 48 hrs by scratch wound healing assay. The format is functional, cell-based.
Series [11] concerns the target T2, Epidermal growth factor receptor. The experiment in a line: Inhibition of wild type EGFR in human A-431 cells assessed as inhibition of EGF-induced ERK1/2 phosphorylation at 0.1 to 10 uM pretreated with compound for 4 hrs followed by incubation with EGF for 10 mins by western blot analysis. The format is toxicity, cell-based. The note with it: a-431, 4.167 h, dose 0.1-10 µM, time 250 min.

A short description of series [12]: Clearance in Sprague-Dawley rat at 1 mg/kg, iv by LC-MS analysis. The note with it: in vivo. The series is classed as ADME, organism-based.
A short description of series [13]: Selectivity ratio of IC50 for cytotoxicity against human A549 cells harboring wild type EGFR to IC50 for antiproliferative activity against human NCI-H1975 cells harboring EGFR L858R/T790M mutant. The format is toxicity, cell-based. The note with it: read-out: Ratio IC50.
Series [14] is described as follows: Toxicity in BALB/c mouse xenografted with N-(3-((6-Fluoro-2-((4-(4-methylpiperazin-1-yl)phenyl)amino)quinazolin-4-yl)amino)phenyl)acrylamide-resistant human NCI-H1975 cells assessed as changes in lung morphological changes at 20 mg/kg/day, ip in presence of ACK1 inhibitor, dasatinib by hematoxylin-eosin staining based analysis. The format is organism-based. The note with it: in vivo.

The nature of series [15]: Cytotoxicity against human A-431 cells harboring wild type EGFR assessed as reduction in cell viability measured after 72 hrs by MTT assay. The series is classed as toxicity, cell-based.
The subject of series [16] is NCI-H1975. Put plainly: Antitumor activity against N-(3-((6-Fluoro-2-((4-(4-methylpiperazin-1-yl)phenyl)amino)quinazolin-4-yl)amino)phenyl)acrylamide-resistant human NCI-H1975 cells xenografted in BALB/c mouse assessed as inhibition of tumor volume at 20 mg/kg/day, ip in presence of ACK1 inhibitor, dasatinib. The series is classed as functional, organism-based.
In series [17] the test system is Epidermal growth factor receptor (Homo sapiens), P00533 [L858R,T790M]. The experiment in a line: Inhibition of human partial length EGFR (R669 to V1011 residues) L858R/T790M mutant expressed in mammalian expression system assessed as residual activity at 1 uM by KINOMEscan analysis.
Series [18] has the same test system. Put plainly: Inhibition of EGFR L858R/T790M mutant in N-(3-((6-Fluoro-2-((4-(4-methylpiperazin-1-yl)phenyl)amino)quinazolin-4-yl)amino)phenyl)acrylamide-resistant human NCI-H1975 cells assessed as inhibition of EGF-induced AKT phosphorylation at Ser473 residue pretreated with compound and ACK1 inhibitor, Dasatinib for 4 hrs followed by incubation with EGF for 10 mins by western blot analysis. Particulars: time 250.0 min. The series is classed as cell-based.

Series [19] shares this test system. The experiment in a line: Inhibition of EGFR L858R/T790M mutant in osimertinib-resistant human NCI-H1975 cells assessed as inhibition of EGF-induced Akt phosphorylation at Ser473 residue pretreated with compound for 4 hrs followed by incubation with EGF for 10 mins by western blot analysis. The note with it: time 250.0 min. The series is classed as cell-based.

In series [20] the target is T1, STE20-like serine/threonine-protein kinase. The experiment in a line: Inhibition of human wild type partial length SLK (S14 to A307 residues) expressed in bacterial expression system by KINOMEscan analysis.
Target sequence in this assay (Q9H2G2 whole entry, the tested form may be a part): as the sequence (Q9H2G2 whole entry, looked up, the tested form may be a part) above
For series [21], the target named is Proto-oncogene tyrosine-protein kinase Src (Homo sapiens, UniProt P12931). Put plainly: Inhibition of human wild type partial length Src kinase (L240 to L536 residues) expressed in bacterial expression system assessed as residual activity at 1 uM by KINOMEscan analysis.
Chain of Proto-oncogene tyrosine-protein kinase Src (P12931 2-536 limits assumed): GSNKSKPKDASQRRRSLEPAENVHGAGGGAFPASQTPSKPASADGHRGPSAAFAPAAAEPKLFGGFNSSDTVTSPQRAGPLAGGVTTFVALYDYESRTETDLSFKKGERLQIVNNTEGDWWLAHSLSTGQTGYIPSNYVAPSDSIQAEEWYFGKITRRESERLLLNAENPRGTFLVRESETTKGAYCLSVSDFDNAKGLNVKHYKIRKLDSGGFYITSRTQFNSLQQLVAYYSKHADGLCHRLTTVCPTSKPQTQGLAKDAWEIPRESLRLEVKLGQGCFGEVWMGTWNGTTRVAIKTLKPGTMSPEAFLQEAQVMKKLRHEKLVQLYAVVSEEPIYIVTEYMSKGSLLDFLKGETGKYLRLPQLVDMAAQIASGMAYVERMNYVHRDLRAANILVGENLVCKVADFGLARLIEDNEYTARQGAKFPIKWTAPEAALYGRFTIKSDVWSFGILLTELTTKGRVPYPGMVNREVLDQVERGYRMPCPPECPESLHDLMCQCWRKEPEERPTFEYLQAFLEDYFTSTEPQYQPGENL
The test system of series [22] is Mus musculus. The experiment in a line: In vivo inhibition of EGFR L858R/T790M mutant in NCI-H1975 cells xenografted BALB/c mouse assessed as inhibition of EGFR phosphorylation at Tyr1068 residue in tumor at 20 mg/kg/day, ip by immunoblot analysis. The format is functional, organism-based.

Structures are written as SMILES. Active and inactive are the calls of the source. The rule behind the calls is not given here.

Turning to `C=CC(=O)Nc1cc(Nc2nccc(-c3cn(C)c4ccccc34)n2)c(OC)cc1N(C)CCN(C)C` [OSIMERTINIB], the outcome in series [1] was Active.

Consider `C=CC(=O)Nc1cccc(Nc2nc(Nc3ccc(N4CCN(C)CC4)cc3)nc3ccc(F)cc23)c1`, for which the inhibition result in series [2] is “Dose-Dependent Effect”. For the same molecule, the Activity in [3] was 3%; in series [4], 29%; in series [6], “Non-Toxic”; in series [7], “Non-Toxic”; in series [9], “Dose-Dependent Effect”; in series [14], “Non-Toxic”. For the same molecule, the Activity in [17] is 1%; in series [21], 20%. Further, the IC50 was 1290 nM in [5] and 892 nM in series [20]. Besides, the outcome in [8] and in [16] was Active. Also, the inhibition result in series [10], in [18] and in [22] was “Active” in each case. For the same molecule, the “inhibition (INH)” value in [11] is reported as “Not Active”. Moreover, the clearance in [12] is 16.1 mL/min/kg. Besides, the selectivity ratio in series [13] was determined as 211. In addition, in series [15], the IC50 at 72 h stood at 2490 nM. Further, the inhibition entry in [19] is “inactive”.
